Results: the supplement of paper PMC10307832

Key:
Experiment in all cases: relative viability (nuclei count vs DMSO), 5 days (fraction); higher = more cells survive
LCLC-103H = test system: LCLC-103H
How it was run: (§1)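 Cells from lung cancer lines were seeded into 1536-well plates and, one day later, dosed by pin tool. Treatments were either a single drug or a fixed dose of an anchor drug with five library-drug doses (not always all listed) in √10 steps. After 5 days, nuclei were stained in a one-step fixation (final 0.05% Triton X-100, 1% formaldehyde, 1 ug/ml Hoechst) and counted on 4× images, and relative viability is the treated-to-vehicle nuclei ratio, as the median of duplicate plates.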

NCI-H661 = test system: NCI-H661
How it was run: as §1

NCI-H1915 = test system: NCI-H1915
How it was run: as §1

NCI-H322M = test system: NCI-H322M
How it was run: as §1

NCI-H460 = test system: NCI-H460
How it was run: as §1

NCI-H1755 = test system: NCI-H1755
How it was run: as §1

NCI-H727 = test system: NCI-H727
How it was run: as §1

PC-14 = test system: PC-14
How it was run: as §1

NCI-H441 = test system: NCI-H441
How it was run: as §1

NCI-H1651 = test system: NCI-H1651
How it was run: as §1

## O=c1cc(N2CCOCC2)oc2c(-c3cccc4c3sc3ccccc34)cccc12 + COc1cc2c(Oc3ccc(NC(=O)C4(C(=O)Nc5ccc(F)cc5)CC4)cc3F)ccnc2cc1OCCCN1CCOCC1 [Foretinib] (partner 0.25 µM)
LCLC-103H; first compound 0.01 µM
  relative viability: 0.685
LCLC-103H; first compound 0.03162 µM
  relative viability: 0.786
LCLC-103H; first compound 0.1 µM
  relative viability: 0.806
LCLC-103H; first compound 0.3162 µM
  relative viability: 0.824
LCLC-103H; first compound 1 µM
  relative viability: 0.746
NCI-H661; first compound 0.01 µM
  relative viability: 0.996
NCI-H661; first compound 0.03162 µM
  relative viability: 1.05
NCI-H661; first compound 0.1 µM
  relative viability: 1.03
NCI-H661; first compound 0.3162 µM
  relative viability: 0.947
NCI-H661; first compound 1 µM
  relative viability: 1.03
NCI-H1915; first compound 0.01 µM
  relative viability: 1.12
NCI-H1915; first compound 0.03162 µM
  relative viability: 1.1
NCI-H1915; first compound 0.1 µM
  relative viability: 1.16
NCI-H1915; first compound 0.3162 µM
  relative viability: 1.11
NCI-H1915; first compound 1 µM
  relative viability: 1.06
NCI-H322M; first compound 0.01 µM
  relative viability: 0.91
NCI-H322M; first compound 0.03162 µM
  relative viability: 0.903
NCI-H322M; first compound 0.1 µM
  relative viability: 0.888
NCI-H322M; first compound 0.3162 µM
  relative viability: 0.917
NCI-H322M; first compound 1 µM
  relative viability: 0.849
NCI-H460; first compound 0.01 µM
  relative viability: 0.981
NCI-H460; first compound 0.03162 µM
  relative viability: 1.03
NCI-H460; first compound 0.1 µM
  relative viability: 0.987
NCI-H460; first compound 0.3162 µM
  relative viability: 0.985
NCI-H460; first compound 1 µM
  relative viability: 1.04
NCI-H1755; first compound 0.01 µM
  relative viability: 0.899
NCI-H1755; first compound 0.03162 µM
  relative viability: 0.952
NCI-H1755; first compound 0.1 µM
  relative viability: 0.959
NCI-H1755; first compound 0.3162 µM
  relative viability: 0.926
NCI-H1755; first compound 1 µM
  relative viability: 0.934
NCI-H727; first compound 0.01 µM
  relative viability: 1.05
NCI-H727; first compound 0.03162 µM
  relative viability: 0.822
NCI-H727; first compound 0.1 µM
  relative viability: 0.908
NCI-H727; first compound 0.3162 µM
  relative viability: 1
NCI-H727; first compound 1 µM
  relative viability: 0.865
PC-14; first compound 0.01 µM
  relative viability: 0.957
PC-14; first compound 0.03162 µM
  relative viability: 0.965
PC-14; first compound 0.1 µM
  relative viability: 0.994
PC-14; first compound 0.3162 µM
  relative viability: 0.987
PC-14; first compound 1 µM
  relative viability: 0.948
NCI-H441; first compound 0.01 µM
  relative viability: 1.17
NCI-H441; first compound 0.03162 µM
  relative viability: 0.864
NCI-H441; first compound 0.1 µM
  relative viability: 1.02
NCI-H441; first compound 0.3162 µM
  relative viability: 0.992
NCI-H441; first compound 1 µM
  relative viability: 0.969
NCI-H1651; first compound 0.01 µM
  relative viability: 0.775
NCI-H1651; first compound 0.03162 µM
  relative viability: 0.766
NCI-H1651; first compound 0.1 µM
  relative viability: 0.958
NCI-H1651; first compound 0.3162 µM
  relative viability: 0.796
NCI-H1651; first compound 1 µM
  relative viability: 0.624
